Structures can show the parent of a compound that is named as a salt. Where two headings read alike, the source gives them in different places.
Biological target: recombinant HCV RNA-dependent RNA polymerase (NS5B protein) (Hepatitis C virus genotype 1b, UniProt P26663)
Assay: biochemical
Parameters: species or system HCV-Bk strain
[1] = read-out: Activity (polymerase activity, IC50)

Chain of recombinant HCV RNA-dependent RNA polymerase (NS5B protein) (P26663 2420-3010 limits assumed): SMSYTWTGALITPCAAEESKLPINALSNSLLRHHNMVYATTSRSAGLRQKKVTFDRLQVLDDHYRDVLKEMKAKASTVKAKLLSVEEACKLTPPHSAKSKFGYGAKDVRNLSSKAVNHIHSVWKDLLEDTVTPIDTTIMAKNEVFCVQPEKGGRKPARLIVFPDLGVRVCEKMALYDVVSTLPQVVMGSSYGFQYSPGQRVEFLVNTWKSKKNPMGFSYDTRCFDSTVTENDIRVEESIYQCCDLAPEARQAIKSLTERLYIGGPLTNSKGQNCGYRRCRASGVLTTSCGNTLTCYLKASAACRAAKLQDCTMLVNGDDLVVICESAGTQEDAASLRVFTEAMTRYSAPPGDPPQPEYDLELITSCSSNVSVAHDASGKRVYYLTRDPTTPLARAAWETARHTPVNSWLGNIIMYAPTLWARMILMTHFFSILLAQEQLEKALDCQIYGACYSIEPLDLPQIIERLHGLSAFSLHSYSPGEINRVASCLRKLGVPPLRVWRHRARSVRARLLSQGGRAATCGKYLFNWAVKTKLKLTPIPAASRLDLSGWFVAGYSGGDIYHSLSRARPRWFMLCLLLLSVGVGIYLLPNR

| SMILES | IC50 | IC50 [1] |
| --- | --- | --- |
| CC1(O)CCC(N(c2cc(-c3ccccc3)sc2C(=O)O)C(=O)[C@H]2CC[C@@H](C)CC2)CC1 (relative stereo) [Compound 86, cis-3-[(4-Hydroxy-4-methyl-cyclohexyl)-(4-methyl-cyclohexanecarbonyl)-amino]-5-phenyl-thiophene-2-carboxylic acid] | < 5 µM |  |
| CO[C@H]1CC[C@H](N(c2cc(-c3ccccc3)sc2C(=O)O)C(=O)[C@H]2CC[C@H](C)CC2)CC1 [Compound 46, 3-[(4-methoxy-cyclohexyl)-(4-methyl-cyclohexanecarbonyl)-amino]-5-phenyl-thiophene-2-carboxylic acid] | < 5 µM |  |
| CC1CCC(C(=O)N(c2cc(-c3ccccc3)sc2C(=O)O)C(C)C)OC1 (stereo not drawn) [Compound 29, 3-[Isopropyl-(cis-5-methyl-tetrahydro-pyran-2-carbonyl)-amino]-5-phenyl-thiophene-2-carboxylic acid] | 5 to 20 µM |  |
| C[C@H]1CC[C@H](C(=O)N(c2cc(-c3ccccc3)sc2C(=O)O)[C@H]2CC[C@H](O)C2)CC1 [Compound 90, 3-[(3-hydroxy-cyclopentyl)-(4-methyl-cyclohexanecarbonyl)-amino]-5-phenyl-thiophe-2-carboxylic acid] | < 5 µM |  |
| C[C@H]1CC[C@H](C(=O)N(c2cc(-c3ccccc3)sc2C(=O)O)C2CCS(=O)(=O)CC2)CC1 [Compound 37, 3-[(1,1-Dioxo-tetrahydro-thiopyran-4-yl)-(trans-4-methyl-cyclohexanecarbonyl)-amino]-5-phenyl-thiophene-2-carboxylic acid] | < 5 µM |  |
| CC1CCC(C(=O)N(c2cc(-c3ccccc3)sc2C(=O)O)C2CCC(=O)CC2)CC1 (stereo not drawn) [Compound 13, 3-[(4-methyl-cyclohexanecarbonyl)-(4-oxo-cyclohexyl)-amino]-5-phenyl-thiophene-2-carboxylic acid] | < 5 µM |  |
| CC1CCC(C(=O)N(c2cc(-c3cccc(F)c3)sc2C(=O)O)C(C)C)CC1 (stereo not drawn) [Compound 5, 5-(3-fluoro-phenyl)-3-[isopropyl-(4-methyl-cyclohexanecarbonyl)-amino]-thiophene-2-carboxylic acid] |  | < 5 µM |
| CC1CCC(C(=O)N(c2cc(-c3ccccc3)sc2C(=O)O)C2CCN(C(=O)C(N)=O)CC2)CC1 (stereo not drawn) [Compound 83, 3-[(1-aminooxalyl-piperidin-4-yl)-(4-methyl-cyclohexanecarbonyl)-amino]-5-phenyl-thiophene-2-carboxylic acid] |  | < 5 µM |
| CC1CCC(C(=O)N(c2cc(-c3ccccc3)sc2C(=O)O)C2CCCNCC2)CC1 (stereo not drawn) [Compound 6, 3-[azepan-4-yl-(4-methyl-cyclohexanecarbonyl)-amino]-5-phenyl-thiophene-2-carboxylic acid] | < 5 µM |  |
| CC1=CCC(C(=O)N(c2cc(-c3ccccc3)sc2C(=O)O)C(C)C)CC1 (stereo not drawn) [Compound 17, 3-[isopropyl-(4-methyl-cyclohex-3-enecarbonyl)-amino]-5-phenyl-thiophene-2-carboxylic acid] | < 5 µM |  |
| CCN(C(=O)c1ccc(C)cc1)c1cc(-c2ccccc2)sc1C(=O)O [Compound 84, 3-[ethyl-(4-methyl-benzoyl)-amino]-5-phenyl-thiophene-2-carboxylic acid] | < 5 µM |  |
| C=C1CCC(C(=O)N(c2cc(-c3ccccc3)sc2C(=O)O)C(C)C)CC1 [Compound 28, 3-[isopropyl-(4-methylene-cyclohexanecarbonyl)-amino]-5-phenyl-thiophene-2-carboxylic acid] | < 5 µM |  |
| CC1CCC(C(=O)N(CC2OCCO2)c2cc(-c3ccccc3)sc2C(=O)O)CC1 (stereo not drawn) [Compound 8, 3-[[1,3]dioxolan-2-ylmethyl-(4-methyl-cyclohexanecarbonyl)-amino]-5-phenyl-thiophene-2-carboxylic acid] | < 5 µM |  |
| C[C@H]1CC[C@H](C(=O)N(c2cc(-c3ccccc3)sc2C(=O)O)[C@H]2CCC[C@@H](O)C2)CC1 (stereo in doubt) [Compound 87, 3-[(3-hydroxy-cyclohexyl)-(4-methyl-cyclohexanecarbonyl)-amino]-5-phenyl-thiophene-2-carboxylic acid] | < 5 µM |  |
| C[C@H]1CC[C@H](C(=O)N(c2cc(-c3ccccc3)sc2C(=O)O)[C@H]2CC[C@@H](O)CC2)CC1 [Compound 47, 3-[(4-methyl-cyclohexanecarbonyl)-(4-hydroxy-cyclohexyl)-amino]-5-phenyl-thiophene-2-carboxylic acid] | < 5 µM |  |
| CC1CCC(C(=O)N(c2cc(-c3ccccc3)sc2C(=O)O)C2CCOCC2)C(O)C1 (stereo not drawn) [Compound 31, 3-[(2-hydroxy-4-methyl-cyclohexanecarbonyl)-(tetrahydro-pyran-4-yl)-amino]-5-phenyl-thiophene-2-carboxylic acid] | < 5 µM |  |
| CON=C1CCC(N(C(=O)C2CCC(C)CC2)c2cc(-c3ccccc3)sc2C(=O)O)CC1 (stereo not drawn) [Compound 25, 3-[(4-methoxyimino-cyclohexyl)-(4-methyl-cyclohexanecarbonyl)-amino]-5-phenyl-thiophene-2-carboxylic acid] | < 5 µM |  |
| CS(=O)(=O)N1CCC(N(c2cc(-c3ccccc3)sc2C(=O)O)C(=O)[C@H]2CC[C@H](C)CC2)CC1 [Compound 70, 3-[(1-methanesulfonyl-piperidin-4-yl)-(4-methyl-cyclohexanecarbonyl)-amino]-5-phenyl-thiophene-2-carboxylic acid] | < 5 µM |  |
| CC1CCC(C(=O)N(c2cc(-c3ccccc3)sc2C(=O)O)C(C)CN)CC1 (stereo not drawn) [Compound 36, 3-[(2-amino-1-methyl-ethyl)-(4-methyl-cyclohexanecarbonyl)-amino]-5-phenyl-thiophene-2-carboxylic acid] | < 5 µM |  |
| CC1CCC(C(=O)N(c2cc(-c3ccccc3)sc2C(=O)O)C2CCN(C(N)=O)CC2)CC1 (stereo not drawn) [Compound 81, 3-[(1-carbamoyl-piperidin-4-yl)-(4-methyl-cyclohexanecarbonyl)-amino]-5-phenyl-thiophene-2-carboxylic acid] | < 5 µM |  |
| C[C@H]1CC[C@H](C(=O)N(c2cc(-c3ccccc3)sc2C(=O)O)[C@H]2CC[C@H](O)CC2)CC1 [Compound 15, 3-[(trans-4-Hydroxy-cyclohexyl)-(trans-4-methyl-cyclohexanecarbonyl)-amino]-5-phenyl-thiophene-2-carboxylic acid] | < 5 µM |  |
| CCC(C)C(C[NH3+])N(C(=O)c1ccccc1Cl)c1cc(-c2ccccc2)sc1C(=O)O (stereo not drawn) [Compound 19, 2-[(2-carboxy-5-phenyl-thiophen-3-yl)-(2-chloro-benzoyl)-amino]-3-methyl-pentyl-ammonium trifluoroacetate] | > 20 µM |  |
| COc1ccc(-c2cc(N(C(=O)C3CCC(C)CC3O)C(C)C)c(C(=O)O)s2)cc1 (stereo not drawn) [Compound 62, 3-[(2-hydroxy-4-methyl-cyclohexanecarbonyl)-isopropyl-amino]-5-(4-methoxy-phenyl)-thiophene-2-carboxylic acid] | < 5 µM |  |
| CC1CCC(C(=O)N(c2cc(-c3ccccc3)sc2C(=O)O)C2CCC[NH+](C)CC2)CC1 (stereo not drawn) [Compound 49, 4-[(2-carboxy-5-phenyl-thiophen-3-yl)-(4-methyl-cyclohexanecarbonyl)-amino]-1-methyl-azepanium chloride] | < 5 µM |  |
